Consider nine compounds from patent publication US7511034B2, “Dialkylhydroxybenzoic acid derivatives containing metal chelating groups and their therapeutic uses” (Samsung Electronics Co., Ltd., priority 2001, dated 2009).

The test system of data set [1] is multilayer liposome (soybean phosphatidylcholine). The data set is described as follows: Inhibition of lipid peroxidation (liposome oxidation, TBA absorbance at 532 nm). The format is biochemical. The following applies: liposome oxidation initiated by FeCl2, 37° C., 15 minutes; read-out: Inhibitor Concentration (IC50). As to the method:
The compounds of the present invention were tested for antioxidizing effect in terms of the repression of the radical chain reaction of a multilayer liposome.
The liposome was prepared as followings: 30 mg of commercially available soybean phosphatidylcholine (PC, Sigma Chemical Co., U.S.A.) was dissolved in 1 mL of ethanol, and 200 μL of the ethanol/PC solution was added to 10 mL of 10 mM Tris buffer including 50 mM NaCl (pH 7.0) with stirring.
The ability of a compound to inhibit oxidation of the liposome was evaluated as followings: To 400 μL of the liposomes were added the test compound (in buffer or ethanol) and histidine-FeCl3 (167:33 μM final). Oxidation was initiated by the addition of FeCl2 (33 μM final prepared in nitrogen purged water). The mixtures was shaken at 37° C. for 15 minutes. Thereafter, tubes were treated with 1 mL of 0.67% thiobabituric acid (TBA):10% trichloroacetic acid (2:1, v/v) in 0.25 N HCl solution, containing 1.5% (v/v) t-butylhydroxytoluene (BHT) to terminate oxidation. The aliquots were heated to 100° C. for 20 minutes. After ice cooling, 1 mL of chloroform was added to 1 mL supernatant from tubes and tubes were centrifuged. The absorbances of the resulting supernatant were measured at 532 nm (see: Table below).

The test system of data set [2] is ischemic neuronal degeneration. The data set is described as follows: Protection of cell damage by ischemia (in vivo), hippocampus Cresyl violet staining. On the set-up: species or system Mongolian gerbils (Meriones unguiculatus). The following applies: gerbils, 60 mg/kg P.O., 4 days reperfusion; for protective effect: 5 min carotid occlusion, pre-treated groups. As to the method:
Male Mongolian gerbils (Meriones unguiculatus) weighing 80-88 g were used in the present study. Each animal was medicated P.O. with vehicle, Ebselen or various test compounds (60 mg/kg in 10% DMSO), after 30 minutes ischemic injury, respectively. 20 animals were allotted into every group. The animals were placed under general anesthesia with a mixture of 2.5% isoflurane in 33% oxygen and 67% nitrous oxide. A midline ventral incision was made in the neck. Both common carotid arteries were isolated, freed of nerve fibers, and occluded using nontraumatic aneurysm clips. Complete interruption of blood flow was confirmed by observing the central artery in eyeballs using ophthalmoscope. After five minutes of occlusion, the aneurysm clips were removed from both common carotid arteries. Restoration of blood flow (reperfusion) was observed directly under the microscope. Sham-operated controls were subjected to the same surgical procedures except that common carotid arteries were not occluded. Body temperature was monitored and maintained at 37° C.±0.5° C. during surgery and during the immediate postoperative period until the animals recovered fully from anesthesia. At the designated reperfusion time (4 days), operated animals and sham animals were killed.
Animals were perfused transcardially with phosphate-buffered saline (PBS, pH 7.4) followed by 4% paraformaldehyde in 0.1 M phosphate buffer (pH 7.4) at 4 days (n=7) after surgery. The brains were removed, and postfixed in the same fixative for 4 hours. The brain tissues were cryoprotected by infiltration with 30% sucrose overnight. Cornoy fixed specimens were cut into 30 μm sections on a cryostat. The sections were sequentially stained by Cresyl violet dye.
Images of staining in the hippocampus of each animal were captured with an Applescanner. […] All data obtained from the quantitative data were analyzed using one-way ANOVA to determine statistical significance. Bonferroni's test was used for post-hoc comparisons. P values below 0.05 or 0.01 were considered statistically significant.

A further data set relates to mice. The following applies: oral administration; cited from earlier work.
A further data set deals with rats. The following applies: oral administration; cited from earlier work.
For data set [3] the following is noted: even in the presence of an excess of glutathione (GSH); cited from earlier work.
Data set [4] is described as follows: Acute toxicity LD50 in rats. The following applies: rat, in vivo.

As to `CC(C)(C)c1cc(C(=O)NCc2ccccn2)cc(C(C)(C)C)c1O` [Example 2, 3,5-Di-tert-butyl-4-hydroxy-N-pyridin-2-yl methyl benzamide], the IC50 in data set [1] was 12.7 µM. Same read-out and setting: with `CC(C)(C)c1cc(C(=O)Nc2ccccn2)cc(C(C)(C)C)c1O` [Example 1, 3,5-Di-tert-butyl-4-hydroxy-N-pyridin-2-yl-benzamide] the figure was 11.9 µM; with `CCOC(=O)c1csc(NC(=O)c2cc(C(C)(C)C)c(O)c(C(C)(C)C)c2)n1` [Example 5, 2-(3,5-Di-tert-butyl-4-hydroxy-benzoylamino)-thiazole-4-carboxylic acid ethyl ester], 11.1 µM. In general, LD50 refers to the dose at which mortality reaches 50%. Turning to `O=c1c2ccccc2[se]n1-c1ccccc1` [Ebselen], the protective effect in data set [2] is 69%. Also, the LD50 with mice and with rats was ≥ 6,810 mg/kg in each case. The solubility in water entry in data set [3] is “very little soluble in water”.

`CC(C)(C)c1cc(C(=O)Nc2ccc(O)c3ncccc23)cc(C(C)(C)C)c1O` [Example 3, 3,5-Di-tert-butyl-4-hydroxy-N-(8-hydroxyyquinolin-5-yl) benzamide]: the IC50 in data set [1] was 7.79 µM. As for `CC(C)(C)c1cc(C(=O)Nc2nccs2)cc(C(C)(C)C)c1O` [Example 4, 3,5-Di-tert-butyl-4-hydroxy-N-thiazol-2-yl benzamide], the LD50 in data set [4] (ip, intraperitoneal administration in rats) was not below 800 mg/kg. The LD50 in data set [4] (oral administration in rats) was not below 6950 mg/kg. Also, in data set [2], the protective effect came out at 91% and the “neuroprotective effects against ischemic neuronal degeneration compared with Ebselen” value is “more neuroprotective effects against ischemic neuronal degeneration than those of Ebselen”. The IC50 in data set [1] was determined as 9.69 µM. In the case of `Cc1cc(C(=O)Nc2ccccn2)cc(C)c1O` [Example 6, 4-Hydroxy-3,5-dimethyl-N-pyridin-2-yl-benzamide], the IC50 in data set [1] worked out at 122 µM. With `Cc1c(C)c2c(c(C)c1O)CCC(C)(C(=O)O)O2` (stereo not shown) [Trolox, reference compound], the IC50 in data set [1] was 10.2 µM. In the case of `Cc1cc(C(=O)NCc2ccccn2)cc(C)c1O` [Example 7, 4-Hydroxy-3,5-dimethyl-N-pyridine-2-yl methyl benzamide], in data set [1], the IC50 was found to be 300 µM.
